In brackets after ≈: the same amount, converted by molar mass.
Key:
E. coli K12 PBP3 = biological target: T1, E. coli K12 PBP3 (Escherichia coli, UniProt P0AD68); assay: biochemical; type: binding
T1 construct: made in house
Method in brief: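 Fluorescence polarization (ex 490/em 520 nm) competition of inhibitors against Bocillin-FL at 0.1 μM, read up to 60 min. Final PBP levels: E. coli PBP3 1.5 μM; A. baumannii PBP2 2.5 μM, PBP3 0.2 μM in Tris pH 8.0/NaCl/glycerol/Tween 20; N. gonorrhoeae PBP2 […] in Hepes pH 8.0/NaCl/glycerol. EC50 = concentration halving PBP-bound Bocillin-FL.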

P. aeruginosa ATCC 27853 = assay: Broth microdilution MIC in CAMHB; type: cell-based; details: Pseudomonas aeruginosa, ATCC27853; MHB; read-out: Minimum Inhibitory Concentration, P. aeruginosa ATCC 27853
Method in brief: (§1)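 CLSI broth microdilution in CAMHB: 2-fold compound dilutions inoculated at 2-8×10^5 CFU/mL from 3-5 h log-phase cultures. Incubated at 37 °C for 16-20 h (Enterobacteriaceae, Pseudomonas); MIC read visually as lowest concentration without growth. Strains include hyper-permeable and efflux-deficient mutants.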

[1] = tested on: K. pneumoniae UMM producing SHV-5 and KPC-2; assay: Broth microdilution MIC in CAMHB; type: cell-based; details: Klebsiella pneumoniae, read-out: Minimum Inhibitory Concentration, K. pneumoniae UMM
Method in brief: as §1

[2] = tested on: K. pneumoniae SI-117 producing VIM-1; assay: Broth microdilution MIC in CAMHB; type: cell-based; details: Klebsiella pneumoniae, read-out: Minimum Inhibitory Concentration, K. pneumoniae SI-117
Method in brief: as §1

P. aeruginosa ATCC 35151 = assay: Broth microdilution MIC in CAMHB; type: cell-based; details: Pseudomonas aeruginosa, ATCC35151; MHB; hyper-permeable strain; read-out: Minimum Inhibitory Concentration, P. aeruginosa ATCC 35151
Method in brief: as §1

[3] = tested on: K. pneumoniae 848844 producing SHV-11 and KPC-2; assay: Broth microdilution MIC in CAMHB; type: cell-based; details: Klebsiella pneumoniae, read-out: Minimum Inhibitory Concentration, K. pneumoniae 848844
Method in brief: as §1

A. baumannii ATCC 19606 = assay: Broth microdilution MIC in CAMHB; type: cell-based; details: Acinetobacter baumannii, ATCC19606; MHB; read-out: Minimum Inhibitory Concentration, A. baumannii ATCC 19606
Method in brief: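 Colonies from cation-adjusted Mueller Hinton agar are grown in broth (3-5 h, 37° C), adjusted by OD600, and added at 2-8×10^5 CFU/mL to 2-fold compound dilutions. After 16-20 h at 37° C, the lowest concentration without growth is taken as MIC.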

E. coli AG100 = assay: Broth microdilution MIC in CAMHB; type: cell-based; details: Escherichia coli; E. coli AG100 (wild-type parent); MHB; read-out: Minimum Inhibitory Concentration, E. coli AG100
Method in brief: as §1

E. coli 901C = assay: Broth microdilution MIC in CAMHB; type: cell-based; details: Escherichia coli; E. coli 901C (hyper-permeable); MHB; read-out: Minimum Inhibitory Concentration, E. coli 901C
Method in brief: as §1

T1 sequence (P0AD68 1-577): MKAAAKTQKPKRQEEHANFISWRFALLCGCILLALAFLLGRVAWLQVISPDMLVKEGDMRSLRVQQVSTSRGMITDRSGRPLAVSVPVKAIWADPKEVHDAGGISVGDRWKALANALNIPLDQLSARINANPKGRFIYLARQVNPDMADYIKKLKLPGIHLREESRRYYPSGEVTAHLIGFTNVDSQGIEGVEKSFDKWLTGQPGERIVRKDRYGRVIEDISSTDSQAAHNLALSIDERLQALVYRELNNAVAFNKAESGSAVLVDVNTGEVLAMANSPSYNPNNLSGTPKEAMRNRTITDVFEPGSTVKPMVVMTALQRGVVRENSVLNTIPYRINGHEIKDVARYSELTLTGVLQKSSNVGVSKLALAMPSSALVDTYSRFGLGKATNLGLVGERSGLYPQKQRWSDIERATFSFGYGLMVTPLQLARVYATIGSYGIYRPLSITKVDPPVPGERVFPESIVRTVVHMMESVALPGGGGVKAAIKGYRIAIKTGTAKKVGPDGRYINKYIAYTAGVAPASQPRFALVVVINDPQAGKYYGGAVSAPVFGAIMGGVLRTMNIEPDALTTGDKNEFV

SMILES	EC50 (E. coli K12 PBP3) [µM]	MIC (P. aeruginosa ATCC 27853) [µg/mL]	MIC [1] [µg/mL]	MIC [2] [µg/mL]	MIC (P. aeruginosa ATCC 35151) [µg/mL]	MIC [3] [µg/mL]	MIC (A. baumannii ATCC 19606) [µg/mL]	MIC (E. coli AG100) [µg/mL]	MIC (E. coli 901C) [µg/mL]
CCN1CCN(C(=O)NC(C(=O)N[C@H]2Cc3cccc(C(=O)O)c3OB2O)c2cccc(NC(=O)c3cccnc3)c2)C(=O)C1=O (stereo partly drawn) [Example 97, (3R)-3-(2-(4-ethyl-2,3-dioxopiperazine-1-carboxamido)-2-(3-(nicotinamido)phenyl)acetamido)-2-hydroxy-3,4-dihydro-2H-benzo[e][1,2]oxaborinine-8-carboxylic acid]	< 30	> 128	> 128	> 128	8 to 16 (≈ 12.7 to 25.5 µM)	> 128	> 128	> 128	0.5 to 1 (≈ 0.796 to 1.59 µM)
CCN1CCN(C(=O)N[C@H](C(=O)N[C@H]2Cc3cccc(C(=O)O)c3OB2O)c2cc(O)cc(O)c2)C(=O)C1=O (single isomer, unassigned) [Example 81]	> 500	> 128	> 128	> 128	2 to 4 (≈ 3.7 to 7.4 µM)	> 128	> 128	32 to 64 (≈ 59.2 to 118 µM)	0.5 to 1 (≈ 0.925 to 1.85 µM)
CCN1CCN(C(=O)NC(C(=O)N[C@H]2Cc3cccc(C(=O)O)c3OB2O)c2cccc(N)c2)C(=O)C1=O (stereo partly drawn) [Example 72, (3R)-3-(2-(3-aminophenyl)-2-(4-ethyl-2,3-dioxopiperazine-1-carboxamido)acetamido)-2-hydroxy-3,4-dihydro-2H-benzo[e][1,2]oxaborinine-8-carboxylic acid]	< 30	> 128	32 to 64 (≈ 61.1 to 122 µM)	> 128	2 to 4 (≈ 3.82 to 7.64 µM)	> 128	> 128	32 to 64 (≈ 61.1 to 122 µM)	< 0.25
N=C(N)NC(C(=O)N[C@H]1Cc2ccc(F)c(C(=O)O)c2OB1O)c1ncc(O)cc1F (stereo partly drawn) [Example 52, (3R)-7-fluoro-3-(2-(3-fluoro-5-hydroxypyridin-2-yl)-2-guanidinoacetamido)-2-hydroxy-3,4-dihydro-2H-benzo[e][1,2]oxaborinine-8-carboxylic acid]	> 500	> 128	> 128	> 128	> 128	> 128	> 128	> 128	> 128
CCN1CCN(C(=O)NC(C(=O)N[C@H]2Cc3cccc(C(=O)O)c3OB2O)c2cc(O)ccc2O)C(=O)C1=O (stereo partly drawn) [Example 77, (3R)-3-(2-(2,5-dihydroxyphenyl)-2-(4-ethyl-2,3-dioxopiperazine-1-carboxamido)acetamido)-2-hydroxy-3,4-dihydro-2H-benzo[e][1,2]oxaborinine-8-carboxylic acid]	30 to 500	> 128	> 128	> 128	8 to 16 (≈ 14.8 to 29.6 µM)	> 128	> 128	> 128	8 to 16 (≈ 14.8 to 29.6 µM)
CCN1CCN(C(=O)NC(C(=O)N[C@H]2Cc3cccc(C(=O)O)c3OB2O)c2ccc(O)c(N(S(C)(=O)=O)S(C)(=O)=O)c2)C(=O)C1=O (stereo partly drawn) [Example 21, (3R)-3-(2-(4-ethyl-2,3-dioxopiperazine-1-carboxamido)-2-(4-hydroxy-3-(N-(methylsulfonyl)methylsulfonamido)phenyl)acetamido)-2-hydroxy-3,4-dihydro-2H-benzo[e][1,2]oxaborinine-8-carboxylic acid]	< 30	> 128	32 to 64 (≈ 46 to 92 µM)	> 128	2 to 4 (≈ 2.88 to 5.75 µM)	> 128	> 128	32 to 64 (≈ 46 to 92 µM)	< 0.25
NS(=O)(=O)NC(C(=O)N[C@H]1Cc2cccc(C(=O)O)c2OB1O)c1ccc(C(=O)O)c(F)c1 (stereo partly drawn) [Example 44, (3R)-3-(2-(4-carboxy-3-fluorophenyl)-2-(sulfamoylamino)acetamido)-2-hydroxy-3,4-dihydro-2H-benzo[e][1,2]oxaborinine-8-carboxylic acid]	> 500	> 128	> 128	> 128	32 to 64 (≈ 66.5 to 133 µM)	> 128	> 128	> 128	> 128
CCN1CCN(C(=O)NC(C(=O)N[C@H]2Cc3cccc(C(=O)O)c3OB2O)c2ccc(O)c(NC(C)=O)c2)C(=O)C1=O (stereo partly drawn) [Example 17, (3R)-3-(2-(3-acetamido-4-hydroxyphenyl)-2-(4-ethyl-2,3-dioxopiperazine-1-carboxamido)acetamido)-2-hydroxy-3,4-dihydro-2H-benzo[e][1,2]oxaborinine-8-carboxylic acid]	30 to 500	> 128	32 to 64 (≈ 55 to 110 µM)	> 128	2 to 4 (≈ 3.44 to 6.88 µM)	> 128	> 128	> 128	0.5 to 1 (≈ 0.86 to 1.72 µM)
CCN1CCN(C(=O)NC(C(=O)N[C@H]2Cc3cccc(C(=O)O)c3OB2O)c2ccc(O)c(N)c2)C(=O)C1=O (stereo partly drawn) [Example 29, (3R)-3-(2-(3-amino-4-hydroxyphenyl)-2-(4-ethyl-2,3-dioxopiperazine-1-carboxamido)acetamido)-2-hydroxy-3,4-dihydro-2H-benzo[e][1,2]oxaborinine-8-carboxylic acid]	< 30	> 128	32 to 64 (≈ 59.3 to 119 µM)	32 to 64 (≈ 59.3 to 119 µM)	0.5 to 1 (≈ 0.927 to 1.85 µM)	> 128	> 128	32 to 64 (≈ 59.3 to 119 µM)	0.5 to 1 (≈ 0.927 to 1.85 µM)
CCN1CCN(C(=O)N[C@H](C(=O)N[C@H]2Cc3cccc(C(=O)O)c3OB2O)c2cc(Cl)c(O)cc2Cl)C(=O)C1=O (single isomer, unassigned) [Example 92]	> 500	> 128	> 128	> 128	8 to 16 (≈ 13.5 to 27 µM)	> 128	> 128	> 128	2 to 4 (≈ 3.37 to 6.74 µM)
CCN1CCN(C(=O)NC(C(=O)N[C@H]2Cc3cccc(C(=O)O)c3OB2O)c2cccc(NS(N)(=O)=O)c2)C(=O)C1=O (stereo partly drawn) [Example 98, (3R)-3-(2-(4-ethyl-2,3-dioxopiperazine-1-carboxamido)-2-(3-(sulfamoylamino)phenyl)acetamido)-2-hydroxy-3,4-dihydro-2H-benzo[e][1,2]oxaborinine-8-carboxylic acid]	< 30	> 128	32 to 64 (≈ 53.1 to 106 µM)	32 to 64 (≈ 53.1 to 106 µM)	0.5 to 1 (≈ 0.83 to 1.66 µM)	> 128	> 128	8 to 16 (≈ 13.3 to 26.6 µM)	< 0.25
CCN1CCN(C(=O)NC(C(=O)N[C@H]2Cc3cccc(C(=O)O)c3OB2O)c2ccc(C(=O)O)c(F)c2)C(=O)C1=O (stereo partly drawn) [Example 31, (3R)-3-(2-(4-carboxy-3-fluorophenyl)-2-(4-ethyl-2,3-dioxopiperazine-1-carboxamido)acetamido)-2-hydroxy-3,4-dihydro-2H-benzo[e][1,2]oxaborinine-8-carboxylic acid]	< 30	32 to 64 (≈ 56.1 to 112 µM)	32 to 64 (≈ 56.1 to 112 µM)	> 128	< 0.25	> 128	> 128	32 to 64 (≈ 56.1 to 112 µM)	< 0.25
CCN1CCN(C(=O)NC(C(=O)N[C@H]2Cc3cccc(C(=O)O)c3OB2O)c2cccc(NS(C)(=O)=O)c2)C(=O)C1=O (stereo partly drawn) [Example 76, (3R)-3-(2-(4-ethyl-2,3-dioxopiperazine-1-carboxamido)-2-(3-(methylsulfonamido)phenyl)acetamido)-2-hydroxy-3,4-dihydro-2H-benzo[e][1,2]oxaborinine-8-carboxylic acid]	< 30	> 128	32 to 64 (≈ 53.2 to 106 µM)	> 128	2 to 4 (≈ 3.33 to 6.65 µM)	> 128	> 128	8 to 16 (≈ 13.3 to 26.6 µM)	< 0.25
NCCN1CCN(C(=O)N[C@@H](C(=O)N[C@H]2Cc3cccc(C(=O)O)c3OB2O)c2cc(Cl)c(O)cc2Cl)C(=O)C1=O [Example 90, (R)-3-((R)-2-(4-(2-aminoethyl)-2,3-dioxopiperazine-1-carboxamido)-2-(2,5-dichloro-4-hydroxyphenyl)acetamido)-2-hydroxy-3,4-dihydro-2H-benzo[e][1,2]oxaborinine-8-carboxylic acid]	< 30	> 128	> 128	> 128	0.5 to 1 (≈ 0.822 to 1.64 µM)	> 128	> 128	32 to 64 (≈ 52.6 to 105 µM)	0.5 to 1 (≈ 0.822 to 1.64 µM)
CCN1CCN(C(=O)N[C@@H](C(=O)N[C@H]2Cc3cccc(C(=O)O)c3OB2O)c2cc(Cl)c(O)cc2Cl)C(=O)C1=O (single isomer, unassigned) [Example 91]	< 30	> 128	32 to 64 (≈ 53.9 to 108 µM)	> 128	0.5 to 1 (≈ 0.843 to 1.69 µM)	> 128	> 128	8 to 16 (≈ 13.5 to 27 µM)	< 0.25
